In ChEMBL document CHEMBL1152009, “Synthesis and biological activity of some 3-acryloxymethyl cephalosporins” (Bioorg Med Chem Lett, 1995):
In brackets after ≈: the same amount, converted by molar mass.

What was measured:
Moraxella catarrhalis = test: In vitro antibacterial activity against Branhamella catarrhalis Ravasio (resistance due to beta-lactamase); format: functional
Staphylococcus aureus [1] = test: In vitro antibacterial activity against Staphylococcus aureus Oxford; format: functional
Pseudomonas aeruginosa [2] = test: In vitro antibacterial activity was determined against Pseudomonas aeruginosa 10662; format: functional
Escherichia coli [3] = test: In vitro antibacterial activity against Escherichia coli ESS; format: functional
Haemophilus influenzae [4] = test: In vitro antibacterial activity against Haemophilus influenzae Q1; format: functional
Morganella morganii = test: In vitro antibacterial activity against Morganella morganii T361; format: functional
Klebsiella pneumoniae = test: In vitro antibacterial activity against Klebsiella pneumoniae T767; format: functional
[5] = system: Staphylococcus epidermidis; test: In vitro antibacterial activity against Staphylococcus epidermidis PHLN20; format: functional
Streptococcus pneumoniae [6] = test: In vitro antibacterial activity against Streptococcus pneumoniae 1716; format: functional
Proteus mirabilis = test: In vitro antibacterial activity against Proteus mirabilis C977; format: functional
Staphylococcus aureus [7] = test: In vitro antibacterial activity against Staphylococcus aureus Russell (resistance due to beta-lactamase; format: functional
Staphylococcus aureus [8] = test: In vitro antibacterial activity against Staphylococcus aureus V573 (resistance due to modified target enzyme); format: functional
Escherichia coli [9] = test: In vitro antibacterial activity against Escherichia coli 1077 (resistance due to beta-lactamase); format: functional
Streptococcus agalactiae = test: In vitro antibacterial activity against Streptococcus agalactiae 2798; format: functional
Streptococcus pneumoniae [10] = test: In vitro antibacterial activity against Streptococcus pneumoniae PU7 (resistance due to modified target enzyme); format: functional
Haemophilus influenzae [11] = test: In vitro antibacterial activity against Haemophilus influenzae NEMC (resistance due to beta-lactamase); format: functional
Enterococcus faecalis [12] = test: In vitro antibacterial activity against Streptococcus faecalis I; format: functional
Escherichia coli [13] = test: In vitro antibacterial activity against Escherichia coli 10418; format: functional
Staphylococcus aureus [14] = test: In vitro antibacterial activity against Staphylococcus aureus MB9; format: functional
Streptococcus pyogenes = test: In vitro antibacterial activity against Streptococcus pyogenes CN10; format: functional
Escherichia coli [15] = test: In vitro antibacterial activity against Escherichia coli JT425 (resistance due to beta-lactamase); format: functional
Pseudomonas aeruginosa [16] = test: In vitro antibacterial activity against Pseudomonas aeruginosa 10662; format: functional
Staphylococcus aureus [17] = test: In vitro antibacterial activity against S. aureus MB9; format: functional
Staphylococcus aureus [18] = test: In vitro antibacterial activity against Staphylococcus aureus Russell (resistance due to beta-lactamase); format: functional
Streptococcus pneumoniae [19] = test: In vitro antibacterial activity against Streptococcus pneumoniae PU7 (resistance due to modified target enzyme; format: functional
[20] = Half-life in a rat liver homogenate preparation; format: ADME
Enterococcus faecalis [21] = test: In vitro antibacterial activity against S. faecalis I; format: functional

SMILES | MIC (Moraxella catarrhalis) [µg/mL] | MIC (Staphylococcus aureus [1]) [µg/mL] | MIC (Escherichia coli [3]) [µg/mL] | MIC (Haemophilus influenzae [4]) [µg/mL] | MIC (Morganella morganii) [µg/mL] | MIC (Klebsiella pneumoniae) [µg/mL] | MIC [5] [µg/mL] | MIC (Streptococcus pneumoniae [6]) [µg/mL] | MIC (Proteus mirabilis) [µg/mL] | MIC (Staphylococcus aureus [8]) [µg/mL] | MIC (Escherichia coli [9]) [µg/mL] | MIC (Streptococcus agalactiae) [µg/mL] | MIC (Enterococcus faecalis [12]) [µg/mL] | MIC (Escherichia coli [13]) [µg/mL] | MIC (Staphylococcus aureus [14]) [µg/mL] | MIC (Streptococcus pyogenes) [µg/mL] | MIC (Escherichia coli [15]) [µg/mL] | MIC (Pseudomonas aeruginosa [16]) [µg/mL] | MIC (Staphylococcus aureus [18]) [µg/mL] | MIC (Streptococcus pneumoniae [19]) [µg/mL] | other results
CC(C)=CC(=O)OCC1=C(C(=O)O)N2C(=O)[C@@H](NC(=O)/C(=N\O)c3cnc(N)s3)[C@H]2SC1 | 4 (≈ 8.31 µM) | 0.25 (≈ 0.519 µM) | < 0.03 | 0.06 (≈ 0.125 µM) | 0.25 (≈ 0.519 µM) | 0.5 (≈ 1.04 µM) | 0.25 (≈ 0.519 µM) | < 0.03 | 0.25 (≈ 0.519 µM) | 8 (≈ 16.6 µM) | 0.25 (≈ 0.519 µM) | < 0.03 | 8 (≈ 16.6 µM) | 0.06 (≈ 0.125 µM) | 0.5 (≈ 1.04 µM) | < 0.03 | 0.5 (≈ 1.04 µM) | – | – | – | MIC (Pseudomonas aeruginosa [2]): > 64 µg/mL; MIC (Staphylococcus aureus [7]): 0.5 µg/mL (≈ 1.04 µM); MIC (Streptococcus pneumoniae [10]): 0.5 µg/mL (≈ 1.04 µM); MIC (Haemophilus influenzae [11]): < 0.03 µg/mL
C=C(C)C(=O)OCC1=C(C(=O)O)N2C(=O)[C@@H](NC(=O)/C(=N\O)c3cnc(N)s3)[C@H]2SC1 | 0.5 (≈ 1.07 µM) | 0.06 (≈ 0.128 µM) | < 0.03 | < 0.03 | 0.06 (≈ 0.128 µM) | 0.12 (≈ 0.257 µM) | 0.06 (≈ 0.128 µM) | < 0.03 | 0.06 (≈ 0.128 µM) | 2 (≈ 4.28 µM) | 0.06 (≈ 0.128 µM) | < 0.03 | 32 (≈ 68.5 µM) | < 0.03 | – | < 0.03 | 0.12 (≈ 0.257 µM) | 64 (≈ 137 µM) | 0.25 (≈ 0.535 µM) | 1 (≈ 2.14 µM) | MIC (Staphylococcus aureus [17]): 0.25 µg/mL (≈ 0.535 µM)
CC(=O)OCC1=C(C(=O)O)N2C(=O)[C@@H](NC(=O)/C(=N\O)c3cnc(N)s3)[C@H]2SC1 | 2 (≈ 4.53 µM) | 0.25 (≈ 0.566 µM) | < 0.03 | 0.12 (≈ 0.272 µM) | 0.06 (≈ 0.136 µM) | 0.06 (≈ 0.136 µM) | 0.25 (≈ 0.566 µM) | 0.06 (≈ 0.136 µM) | 0.06 (≈ 0.136 µM) | > 32 | 0.06 (≈ 0.136 µM) | 0.06 (≈ 0.136 µM) | – | 0.06 (≈ 0.136 µM) | 0.5 (≈ 1.13 µM) | – | 1 (≈ 2.27 µM) | > 32 | 0.5 (≈ 1.13 µM) | 2 (≈ 4.53 µM) | half-life [20]: ≤ 15 min; MIC (Enterococcus faecalis [21]): 4 µg/mL (≈ 9.06 µM); MIC (Haemophilus influenzae [11]): 0.06 µg/mL (≈ 0.136 µM)
CO/N=C(\C(=O)N[C@@H]1C(=O)N2C(C(=O)O)=C(COC(C)=O)CS[C@H]12)c1csc(N)n1 [CEFOTAXIME] | 0.25 (≈ 0.549 µM) | 2 (≈ 4.39 µM) | < 0.03 | < 0.03 | 2 (≈ 4.39 µM) | 0.06 (≈ 0.132 µM) | 1 (≈ 2.2 µM) | < 0.03 | < 0.03 | 32 (≈ 70.3 µM) | – | 0.12 (≈ 0.263 µM) | – | < 0.03 | 4 (≈ 8.78 µM) | < 0.03 | 0.5 (≈ 1.1 µM) | 16 (≈ 35.1 µM) | 2 (≈ 4.39 µM) | 2 (≈ 4.39 µM) | half-life [20]: ≤ 15 min; MIC (Enterococcus faecalis [21]): > 64 µg/mL
C/C=C(\C)C(=O)OCC1=C(C(=O)O)N2C(=O)[C@@H](NC(=O)/C(=N\O)c3cnc(N)s3)[C@H]2SC1 | 4 (≈ 8.31 µM) | 0.25 (≈ 0.519 µM) | ≤ 0.03 | ≤ 0.03 | 0.12 (≈ 0.249 µM) | 0.5 (≈ 1.04 µM) | 0.25 (≈ 0.519 µM) | ≤ 0.03 | 0.25 (≈ 0.519 µM) | 8 (≈ 16.6 µM) | 0.25 (≈ 0.519 µM) | ≤ 0.03 | > 64 | 0.12 (≈ 0.249 µM) | 0.5 (≈ 1.04 µM) | ≤ 0.03 | 0.5 (≈ 1.04 µM) | > 64 | 0.5 (≈ 1.04 µM) | 0.5 (≈ 1.04 µM) | –
